# Literature values as cited in article PMC7918733, “Biological Profiling of Semisynthetic C19-Functionalized Ferruginol and Sugiol Analogues” (Antibiotics, 2021).
# What was measured:
# [1] = tested on: P. falciparum K1 strain; conditions: chloroquine-resistant strain; cited from earlier work
# [2] = tested on: BJ; conditions: cytotoxicity; cited from earlier work
# [3] = tested on: L. donovani promastigotes; conditions: read-out: L. donovani IC50; cited from earlier work
# [4] = tested on: RAJI; conditions: cytotoxicity; cited from earlier work
# [5] = tested on: A549 (Lung); conditions: cited from earlier work
# [6] = tested on: HEK293; conditions: cytotoxicity; cited from earlier work
# [7] = tested on: HepG2; conditions: cytotoxicity; cited from earlier work
# [8] = tested on: Vero; conditions: cited from earlier work
# [9] = tested on: P. falciparum 3D7 strain; conditions: chloroquine-sensitive strain; cited from earlier work
smiles,measurement,setting,value
"CC(C)c1cc2c(cc1O)[C@@]1(C)CCCC(C)(C)[C@@H]1CC2 [Compound 1, ferruginol]",EC50,[1],1.33 µM
same,EC50,[2],19.6 µM
same,IC50,[3],12.2 µM
same,EC50,[4],11.5 µM
same,GI50,[5],30.7 ± 5.2 µM
same,EC50,[6],> 25 µM
same,EC50,[7],> 25 µM
same,CC50,[8],> 16.6 µM
same,EC50,[9],2.47 µM
